± gives the expanded uncertainty stated by the source.
Test: mn = molality of the nth substance listed, in mol/kg
Conditions: 101 kPa, Liquid

O=C([O-])CC(O)(CC(=O)[O-])C(=O)[O-].[K+].[K+].[K+] [potassium citrate] + O
mass density (288.15 K, m1 = 0.0185): 1002.99 ± 0.4 kg/m3 | speed of sound (288.15 K, m1 = 0.0185): 1470.8 ± 1.4 m/s | mass density (288.15 K, m1 = 0.0304): 1005.44 ± 0.4 kg/m3 | speed of sound (288.15 K, m1 = 0.0304): 1473.4 ± 1.5 m/s | mass density (288.15 K, m1 = 0.031): 1005.55 ± 0.4 kg/m3 | speed of sound (288.15 K, m1 = 0.031): 1473.5 ± 1.5 m/s | mass density (288.15 K, m1 = 0.0558): 1010.5 ± 0.42 kg/m3 | speed of sound (288.15 K, m1 = 0.0558): 1478.6 ± 1.5 m/s | mass density (288.15 K, m1 = 0.0899): 1017.35 ± 0.45 kg/m3 | speed of sound (288.15 K, m1 = 0.0899): 1485.7 ± 1.5 m/s | mass density (288.15 K, m1 = 0.1258): 1024.33 ± 0.48 kg/m3 | speed of sound (288.15 K, m1 = 0.1258): 1493.8 ± 1.5 m/s | mass density (288.15 K, m1 = 0.1931): 1037.25 ± 0.54 kg/m3 | speed of sound (288.15 K, m1 = 0.1931): 1506.5 ± 1.5 m/s | mass density (288.15 K, m1 = 0.2653): 1050.77 ± 0.61 kg/m3 | speed of sound (288.15 K, m1 = 0.2653): 1519.9 ± 1.6 m/s | mass density (288.15 K, m1 = 0.3412): 1064.51 ± 0.69 kg/m3 | speed of sound (288.15 K, m1 = 0.3412): 1534.3 ± 1.6 m/s | mass density (288.15 K, m1 = 0.4565): 1084.71 ± 0.83 kg/m3 | speed of sound (288.15 K, m1 = 0.4565): 1556.7 ± 1.7 m/s | mass density (288.15 K, m1 = 0.5796): 1105.19 ± 0.98 kg/m3 | speed of sound (288.15 K, m1 = 0.5796): 1578.4 ± 1.8 m/s | mass density (288.15 K, m1 = 0.7446): 1131.73 ± 1.2 kg/m3 | speed of sound (288.15 K, m1 = 0.7446): 1608.1 ± 1.9 m/s | mass density (293.15 K, m1 = 0.0185): 1002.05 ± 0.4 kg/m3 | speed of sound (293.15 K, m1 = 0.0185): 1486.7 ± 1.5 m/s | mass density (293.15 K, m1 = 0.0304): 1004.5 ± 0.4 kg/m3 | speed of sound (293.15 K, m1 = 0.0304): 1489.1 ± 1.5 m/s | mass density (293.15 K, m1 = 0.031): 1004.61 ± 0.4 kg/m3 | speed of sound (293.15 K, m1 = 0.031): 1489.3 ± 1.5 m/s | mass density (293.15 K, m1 = 0.0558): 1009.51 ± 0.42 kg/m3 | speed of sound (293.15 K, m1 = 0.0558): 1494.3 ± 1.5 m/s | mass density (293.15 K, m1 = 0.0899): 1016.3 ± 0.45 kg/m3 | speed of sound (293.15 K, m1 = 0.0899): 1501.1 ± 1.5 m/s | mass density (293.15 K, m1 = 0.1258): 1023.23 ± 0.47 kg/m3 | speed of sound (293.15 K, m1 = 0.1258): 1509 ± 1.5 m/s | mass density (293.15 K, m1 = 0.1931): 1036.06 ± 0.54 kg/m3 | speed of sound (293.15 K, m1 = 0.1931): 1521.2 ± 1.5 m/s | mass density (293.15 K, m1 = 0.2653): 1049.48 ± 0.61 kg/m3 | speed of sound (293.15 K, m1 = 0.2653): 1534.2 ± 1.6 m/s | mass density (293.15 K, m1 = 0.3412): 1063.13 ± 0.69 kg/m3 | speed of sound (293.15 K, m1 = 0.3412): 1548.1 ± 1.6 m/s | mass density (293.15 K, m1 = 0.4565): 1083.21 ± 0.82 kg/m3 | speed of sound (293.15 K, m1 = 0.4565): 1569.7 ± 1.7 m/s | mass density (293.15 K, m1 = 0.5796): 1103.58 ± 0.97 kg/m3 | speed of sound (293.15 K, m1 = 0.5796): 1590.6 ± 1.8 m/s | mass density (293.15 K, m1 = 0.7446): 1129.91 ± 1.2 kg/m3 | speed of sound (293.15 K, m1 = 0.7446): 1619.4 ± 1.9 m/s | mass density (298.15 K, m1 = 0.0185): 1000.87 ± 0.39 kg/m3 | speed of sound (298.15 K, m1 = 0.0185): 1500.8 ± 1.5 m/s | mass density (298.15 K, m1 = 0.0304): 1003.29 ± 0.39 kg/m3 | speed of sound (298.15 K, m1 = 0.0304): 1503.2 ± 1.5 m/s | mass density (298.15 K, m1 = 0.031): 1003.4 ± 0.39 kg/m3 | speed of sound (298.15 K, m1 = 0.031): 1503.3 ± 1.5 m/s | mass density (298.15 K, m1 = 0.0558): 1008.27 ± 0.41 kg/m3 | speed of sound (298.15 K, m1 = 0.0558): 1508.1 ± 1.5 m/s | mass density (298.15 K, m1 = 0.0899): 1015.02 ± 0.44 kg/m3 | speed of sound (298.15 K, m1 = 0.0899): 1514.7 ± 1.5 m/s | mass density (298.15 K, m1 = 0.1258): 1021.9 ± 0.47 kg/m3 | speed of sound (298.15 K, m1 = 0.1258): 1522.4 ± 1.5 m/s | mass density (298.15 K, m1 = 0.1931): 1034.64 ± 0.53 kg/m3 | speed of sound (298.15 K, m1 = 0.1931): 1534.3 ± 1.5 m/s | mass density (298.15 K, m1 = 0.2653): 1047.99 ± 0.6 kg/m3 | speed of sound (298.15 K, m1 = 0.2653): 1546.8 ± 1.6 m/s | mass density (298.15 K, m1 = 0.3412): 1061.56 ± 0.68 kg/m3 | speed of sound (298.15 K, m1 = 0.3412): 1560.2 ± 1.6 m/s | mass density (298.15 K, m1 = 0.4565): 1081.54 ± 0.81 kg/m3 | speed of sound (298.15 K, m1 = 0.4565): 1581.2 ± 1.7 m/s | mass density (298.15 K, m1 = 0.5796): 1101.81 ± 0.96 kg/m3 | speed of sound (298.15 K, m1 = 0.5796): 1601.3 ± 1.8 m/s | mass density (298.15 K, m1 = 0.7446): 1128.11 ± 1.2 kg/m3 | speed of sound (298.15 K, m1 = 0.7446): 1629.2 ± 1.9 m/s | mass density (303.15 K, m1 = 0.0185): 999.449 ± 0.39 kg/m3 | speed of sound (303.15 K, m1 = 0.0185): 1513 ± 1.5 m/s | mass density (303.15 K, m1 = 0.0304): 1001.86 ± 0.39 kg/m3 | speed of sound (303.15 K, m1 = 0.0304): 1515.4 ± 1.5 m/s | mass density (303.15 K, m1 = 0.031): 1001.97 ± 0.39 kg/m3 | speed of sound (303.15 K, m1 = 0.031): 1515.5 ± 1.5 m/s | mass density (303.15 K, m1 = 0.0558): 1006.81 ± 0.41 kg/m3 | speed of sound (303.15 K, m1 = 0.0558): 1520.2 ± 1.5 m/s | mass density (303.15 K, m1 = 0.0899): 1013.52 ± 0.43 kg/m3 | speed of sound (303.15 K, m1 = 0.0899): 1526.6 ± 1.5 m/s | mass density (303.15 K, m1 = 0.1258): 1020.35 ± 0.46 kg/m3 | speed of sound (303.15 K, m1 = 0.1258): 1534.1 ± 1.5 m/s | mass density (303.15 K, m1 = 0.1931): 1033.03 ± 0.53 kg/m3 | speed of sound (303.15 K, m1 = 0.1931): 1545.6 ± 1.6 m/s | mass density (303.15 K, m1 = 0.2653): 1046.31 ± 0.6 kg/m3 | speed of sound (303.15 K, m1 = 0.2653): 1557.7 ± 1.6 m/s | mass density (303.15 K, m1 = 0.3412): 1059.82 ± 0.68 kg/m3 | speed of sound (303.15 K, m1 = 0.3412): 1570.7 ± 1.6 m/s | mass density (303.15 K, m1 = 0.4565): 1079.71 ± 0.81 kg/m3 | speed of sound (303.15 K, m1 = 0.4565): 1591.1 ± 1.7 m/s | mass density (303.15 K, m1 = 0.5796): 1099.9 ± 0.95 kg/m3 | speed of sound (303.15 K, m1 = 0.5796): 1610.6 ± 1.8 m/s | mass density (303.15 K, m1 = 0.7446): 1126.1 ± 1.2 kg/m3 | speed of sound (303.15 K, m1 = 0.7446): 1637.7 ± 1.9 m/s | mass density (308.15 K, m1 = 0.0185): 997.814 ± 0.39 kg/m3 | speed of sound (308.15 K, m1 = 0.0185): 1523.6 ± 1.5 m/s | mass density (308.15 K, m1 = 0.0304): 1000.21 ± 0.38 kg/m3 | speed of sound (308.15 K, m1 = 0.0304): 1525.9 ± 1.5 m/s | mass density (308.15 K, m1 = 0.031): 1000.32 ± 0.38 kg/m3 | speed of sound (308.15 K, m1 = 0.031): 1526.1 ± 1.5 m/s | mass density (308.15 K, m1 = 0.0558): 1005.14 ± 0.4 kg/m3 | speed of sound (308.15 K, m1 = 0.0558): 1530.6 ± 1.5 m/s | mass density (308.15 K, m1 = 0.0899): 1011.81 ± 0.43 kg/m3 | speed of sound (308.15 K, m1 = 0.0899): 1536.8 ± 1.5 m/s | mass density (308.15 K, m1 = 0.1258): 1018.62 ± 0.46 kg/m3 | speed of sound (308.15 K, m1 = 0.1258): 1544.2 ± 1.5 m/s | mass density (308.15 K, m1 = 0.1931): 1031.24 ± 0.52 kg/m3 | speed of sound (308.15 K, m1 = 0.1931): 1555.3 ± 1.6 m/s | mass density (308.15 K, m1 = 0.2653): 1044.46 ± 0.59 kg/m3 | speed of sound (308.15 K, m1 = 0.2653): 1567.1 ± 1.6 m/s | mass density (308.15 K, m1 = 0.3412): 1057.91 ± 0.67 kg/m3 | speed of sound (308.15 K, m1 = 0.3412): 1579.7 ± 1.6 m/s | mass density (308.15 K, m1 = 0.4565): 1077.72 ± 0.8 kg/m3 | speed of sound (308.15 K, m1 = 0.4565): 1599.7 ± 1.7 m/s | mass density (308.15 K, m1 = 0.5796): 1097.85 ± 0.94 kg/m3 | speed of sound (308.15 K, m1 = 0.5796): 1618.5 ± 1.8 m/s | mass density (308.15 K, m1 = 0.7446): 1123.97 ± 1.2 kg/m3 | speed of sound (308.15 K, m1 = 0.7446): 1644.9 ± 1.9 m/s | mass density (313.15 K, m1 = 0.0185): 995.982 ± 0.4 kg/m3 | speed of sound (313.15 K, m1 = 0.0185): 1532.7 ± 1.5 m/s | mass density (313.15 K, m1 = 0.0304): 998.37 ± 0.39 kg/m3 | speed of sound (313.15 K, m1 = 0.0304): 1534.9 ± 1.5 m/s | mass density (313.15 K, m1 = 0.031): 998.478 ± 0.39 kg/m3 | speed of sound (313.15 K, m1 = 0.031): 1535 ± 1.5 m/s | mass density (313.15 K, m1 = 0.0558): 1003.28 ± 0.39 kg/m3 | speed of sound (313.15 K, m1 = 0.0558): 1539.5 ± 1.5 m/s | mass density (313.15 K, m1 = 0.0899): 1009.92 ± 0.42 kg/m3 | speed of sound (313.15 K, m1 = 0.0899): 1545.5 ± 1.5 m/s | mass density (313.15 K, m1 = 0.1258): 1016.7 ± 0.45 kg/m3 | speed of sound (313.15 K, m1 = 0.1258): 1552.8 ± 1.5 m/s | mass density (313.15 K, m1 = 0.1931): 1029.28 ± 0.51 kg/m3 | speed of sound (313.15 K, m1 = 0.1931): 1563.6 ± 1.6 m/s | mass density (313.15 K, m1 = 0.2653): 1042.44 ± 0.58 kg/m3 | speed of sound (313.15 K, m1 = 0.2653): 1575 ± 1.6 m/s | mass density (313.15 K, m1 = 0.3412): 1055.86 ± 0.66 kg/m3 | speed of sound (313.15 K, m1 = 0.3412): 1587.3 ± 1.6 m/s | mass density (313.15 K, m1 = 0.4565): 1075.6 ± 0.79 kg/m3 | speed of sound (313.15 K, m1 = 0.4565): 1606.9 ± 1.7 m/s | mass density (313.15 K, m1 = 0.5796): 1095.67 ± 0.94 kg/m3 | speed of sound (313.15 K, m1 = 0.5796): 1625.1 ± 1.8 m/s | mass density (313.15 K, m1 = 0.7446): 1121.72 ± 1.1 kg/m3 | speed of sound (313.15 K, m1 = 0.7446): 1650.8 ± 1.9 m/s
